Reference: patent US20220152044A1, “TREATMENT OF INFLAMMATORY DISEASES OF THE CENTRAL NERVOUS SYSTEM” (PALMAYA PTY LTD, priority 2019, published 2022)
Where “and” joins values, the source holds several entries; their conditions need not be identical. Equal entries are not always repeated. Entries after “also recorded” stand apart in the source; their conditions may differ.

Key:
[1] = tested on: craving for nicotine; test: Nicotine craving and use in patients; type: in vivo, human; details: flumazenil by infusion or nasally/sublingually 50 to 200 micrograms per dose
[2] = tested on: psychosis; test: Drug or anxiety induced episodes of psychosis at detoxification; type: in vivo, human; details: patients with history of psychosis after ceasing cannabis, amphetamines and alcohol; sustained delivery
[3] = tested on: smoking of nicotine cigarettes; test: Smoking of nicotine cigarettes in a group of 80 patients treated with flumazenil; type: in vivo, human
Source text: We have found a reduction in smoking of nicotine cigarettes with the use of flumazenil. We were able to document that those smoking changed from 82.7% before treatment to 75% following treatment in a group of 80 patients being treated with flumazenil.

[4] = tested on: HPA axis; test: HPA axis in stressed animals; type: in vivo
Source text: For this reason the combination of sustained release naltrexone and sustained release flumazenil using injections, implants or infusions would be expected to limit neuro-inflammatory diseases and their symptoms.

[5] = tested on: PTSD; test: PTSD patients treated with flumazenil and/or naltrexone; type: in vivo, human; details: infusions and implants
Source text: Post Trauma Stress Disorder (PTSD), causes dysregulation of anxiety control that may damage the GABAA system and present as hypervigilance, sleep disturbance, anxiety, gastrointestinal (GIT) or bladder symptoms. We have been using flumazenil for more than 8 years to treat patients presenting complex. The infusions and implants give relief to the anxiety, sleep disturbance and the GIT symptoms as well as urinary symptoms in many well established PTSD patients.
Sleep remained normal following this. The profound recovery of sleep in patients with PTSD using flumazenil and naltrexone by continuous delivery has not previously been described.

[6] = tested on: alcohol patients; test: Survey of 84 alcohol patients after flumazenil infusions or implants; type: in vivo, human
Source text: In a survey of 84 alcohol patients the percent of patients drinking daily fell from 14.5% to 5.5% following flumazenil infusions or implants.

[7] = tested on: migraine patients; test: Two migraine patients, follow-up during and after flumazenil delivery; type: in vivo, human
Method: Two migraine patients initially described migraine symptoms, are both symptom free for more than a year. No repeat treatments occurred in the second of the migraine patients, and as such, believe that the treatment might be curative in some patients.
In these two patients treated for migraines, the first patient the history of migraines affecting their required an infusion initially, and then flumazenil implants maintaining at least 1 ng per ml of flumazenil to achieve relief of symptoms. In a second patient we noted that the symptom relief has lasted for more than 12 months when treatment with a flumazenil implant lasting an estimated six months occurred.

[8] = Blood / plasma flumazenil level in patients; type: in vivo, human
Method: In a severe patient population, ondansetron may be given every 6-8 hours to assist in reducing the nausea and associated anxiety symptoms.
The patient was then treated with a subcutaneous implant delivering an estimated 60-80 micrograms per hour of flumazenil (based on water bath release rate testing). The implant was expected to last 8-10 weeks. This prevented the migraines for about 9-10weeks. In the week before the implant was inserted, the patient's blood flumazenil level was noted to be 0.5 ng/ml. The usual expected level for 160 microgram an hour infusions was in the order of 2-3 ng per ml and 1-1.5 ng for 80 microgram per hour infusions.
This finding that the migraines were stopped for a nine week period of time was amazing to the patient as they had suffered migraines for typically three weeks out of four for all of the years […]. At the end of week 8 on the first implant their blood flumazenil level was recorded as 0.5 ng per ml, which is considered a low level. Within a week another migraine started and the patient presented to the clinic for treatment.
This next implant was also delivering an estimated 60-80 micrograms of flumazenil per hour. Evidence of ovulation was confirmed by routine elevation of progesterone during the luteal phase of one of the two cycles during the time of this second implant. Again no migraines occurred during an 8-9 week time of the second implant. Blood levels of flumazenil at 1.2 and 1.3 ng/ml were recorded during the time of the second implant. After 9-10 weeks the patient, presented to a teaching hospital on the weekend with another migraine. They were treated with all the modern treatments for migraines without resolution of the migraine.

[9] = tested on: benzodiazepine detoxification; test: Benzodiazepine detoxification with subcutaneous flumazenil infusion; type: in vivo, human
Method: Benzodiazepines bring relief to stress and are involved in the release of dopamine. As with all other significant addictions, self-control is extremely damaged in patients with a severe benzodiazepine addiction. Our observations of the treatment of poly-drug dependency which includes benzodiazepine usually responds well to the use of flumazenil at 40-160 μg/hour together with 40-160 μg/hour or greater. […] The continual delivery of flumazenil at this rate allows most patients to reduce their benzodiazepine dosing over a few days to a week or two. The control of symptoms as these patients cease their benzodiazepine is controlled so that the majority of patients can cease benzodiazepine use successfully.
We have used our solution of flumazenil at 16 mg per 30 ml with a pH of 4±1 as a subcutaneous infusion at 40 to 160 μg per hour as our standard treatment to reduce the symptoms associated with benzodiazepine detoxification.
Anticonvulsants, such as sodium valproate at 500 to 1000 mg per day were used for the first 10 days of flumazenil treatment to reduce the risk of epileptic seizures. […] The infusion may require several weeks of treatment and can be followed up with a flumazenil infusion delivering 40 to 160 μg per hour or more, as required to complete detoxification from the opioid.

[10] = tested on: methamphetamine use; test: Survey of 109 patients, methamphetamine use after flumazenil infusion; type: in vivo, human
Source text: In a survey of 109 patients treated with flumazenil 4.9% were using methamphetamines daily and this fell to 0.9% following treatment with the flumazenil infusion. Abstinence from methamphetamine use increased from 67% before flumazenil treatment to 87% following treatment. This means that 33% of patients using methamphetamines fell to 13% following treatment with flumazenil.

[11] = tested on: anxiety; test: Anxiety states monitored in twenty one patients after flumazenil; type: in vivo, human
Source text: Twenty one patients were monitored after treatment with flumazenil for the following states: (i) calmness, (ii) tenseness, (iii) relaxation, (iv) contentedness, (v) worry; and (vi) upset.

[12] = tested on: premenstrual tension; test: Premenstrual anxiety and symptoms in women treated with flumazenil; type: in vivo, human; details: women complaining of premenstrual tension

flumazenil level maintained by implants to achieve relief of symptoms ([7]; first migraine patient, infusion initially then implants): at least 1 ng per ml | usual expected blood flumazenil level ([8]; 80 microgram per hour infusions): 1 to 1.5 ng | usual expected blood flumazenil level ([8]; 160 microgram an hour infusions): 2-3 ng per ml | concentration at 8 weeks ([8]; human, blood, subcutaneous, migraine patient, end of week 8 on the first implant): 0.5 ng/mL | blood levels of flumazenil ([8]; migraine patient, during the time of the second implant): 1.2 ng/mL and 1.3 ng/mL | blood flumazenil level ([8]; migraine patient, in the week before the implant was inserted): 0.5 ng/mL
Structure (SMILES): CCOC(=O)c1ncn2c1CN(C)C(=O)c1cc(F)ccc1-2 [flumazenil]
craving for and use of nicotine [1]: reduced craving and use | onset of psychosis with detoxification [2]: prevents the onset of psychosis | fall in those using (smoking) daily ([3]; from 78.1% to 71.4%): 4% | those smoking following treatment ([3]; group of 80 patients, 82.7% before treatment): 75% | those using (smoking) daily following treatment ([3]; same population, 78.1% before treatment): 71.4% | return of the HPA axis to normal [4]: help return the HPA axis | PTSD symptoms (anxiety, sleep disturbance, GIT and urinary symptoms) [5]: give relief; also recorded: significant improvement | percentage abstinent to alcohol following treatment ([6]; 53.1% before): 77.1% | percent of patients drinking daily following treatment ([6]; flumazenil infusions or implants, 14.5% before): 5.5% | duration of symptom relief ([7]; second patient, flumazenil implant lasting an estimated six months, no repeat treatment): more than 12 months | symptom free period ([7]; two migraine patients): more than a year | blocking of positive modulation of the GABAA receptor with benzodiazepines ([9]; flumazenil at 40-160 μg/hour): not significantly blocked | time to cease benzodiazepine use after commencement of the infusion ([9]; subcutaneous infusion 40 to 160 μg per hour): within a few days to a week | craving for benzodiazepines ([9]; subcutaneous infusion 40 to 160 μg per hour, 16 mg per 30 ml, pH 4±1): decrease in their craving for benzodiazepines | patients using methamphetamines following treatment ([10]; 33% before treatment): 13% | patients using methamphetamines daily following treatment ([10]; 109 patients, flumazenil infusion, 4.9% before): 0.9% | abstinence from methamphetamine use following treatment ([10]; 109 patients, 67% before flumazenil treatment): 87% | levels of relaxation following treatment ([11]; twenty one patients): statically significant increase | states of calmness, tenseness, relaxation, contentedness, worry and upset ([11]; twenty one patients after treatment): improved | premenstrual symptoms [12]: reduction in premenstrual symptoms
